Measurements from patent publication US10695371B2, “Modification of extracorporeal photopherisis technology with porphyrin precursors” (Oslo Universitetssykehus HF, priority 2014, dated 2020).
“Also recorded” adds a separate entry of the source.

Key:
[1] = system: Jurkat cells; experiment: Assessment of apoptotic cells by fluorescence microscopy (Hoechst 33342 / PI); format: cell-based, human
Protocol: The cells were collected from the cultivation flasks, centrifuged at 1400 rpm for 5 min and diluted in the serum-free RPMI 1640 medium to a density of 37.5×10^5 cells/ml. Eighty microliters of cell suspension were portioned into 96 well plates. […] For the UV-A irradiation of samples, a home-made UV-A lamp (Sorensen UV-A lamp, Phillips Th […]/09) emitting light mainly in the region 340-410 nm was used (FIG. 1). For the blue light illumination of samples, the light from a bank of four fluorescent tubes (model 3026, Applied Photophysics, London, United Kingdom) emitting light mainly in the region 410-500 nm with a maximum around 440 nm was used (FIG. 1). Apoptotic cells were identified by fluorescence microscopy based on nuclear morphology after staining with 4.0 μg/mI Hoechst 33342 (Sigma, St. Louis, Mo.) at 37° C. for 10 min. This assay was verified in our previous experiments. […] For PI fluorescence detection, the filter combination consisted of a 540/25 nm excitation filter, a 565 nm beam splitter, and a 605/55 nm band-pass emission filter. Fluorescence images were captured by a highly light sensitive thermo-electrically cooled charge-coupled device camera […] (Hamamatsu, Japan).

[2] = system: Jurkat cells; experiment: In vitro long term cell survival assay in methylcellulose-based semisolid medium; design: species or system human
Protocol: The cells were collected from the cultivation flasks, centrifuged at 1400 rpm for 5 min and diluted in the serum-free RPMI 1640 medium to a density of 37.5×10^5 cells/ml. Eighty microliters of cell suspension were portioned into 96 well plates. […] For the UV-A irradiation of samples, a home-made UV-A lamp (Sorensen UV-A lamp, Phillips Th […]/09) emitting light mainly in the region 340-410 nm was used (FIG. 1). For the blue light illumination of samples, the light from a bank of four fluorescent tubes (model 3026, Applied Photophysics, London, United Kingdom) emitting light mainly in the region 410-500 nm with a maximum around 440 nm was used (FIG. 1). Methylcellulose-based medium human MethoCult® with recombinant cytokines, (H4034, StemCell Technologies, France) was used for survival assay. […] The samples were treated according to the manufacturer's instructions and suspensions were transferred into 35 mm Petri dishes. They were incubated at 37° C. in a humidified incubator with 5% CO2.

[3] = system: human T-cell lymphoma cell line, Jurkat; experiment: In vitro cell proliferation assay (MTS) after HAL and/or 8-MOP plus light; format: cell-based; settings: for Dark toxicity (MTS assay): no light
Protocol: The human T-cell lymphoma cell line, Jurkat (ATCC number: TIB-152TM), growing in suspensions at passages 4-24 was used in the study. […] For subcultivation, the cells were diluted to a density of 3×10^5 cells/ml every second day. […] The cells were collected from the cultivation flasks, centrifuged at 1400 rpm for 5 min and diluted in the serum-free RPMI 1640 medium to a density of 37.5×10^5 cells/ml. Eighty microliters of cell suspension were portioned into 96 well plates. […] For the UV-A irradiation of samples, a home-made UV-A lamp (Sorensen UV-A lamp, Phillips Th […]/09) emitting light mainly in the region 340-410 nm was used (FIG. 1). For the blue light illumination of samples, the light from a bank of four fluorescent tubes (model 3026, Applied Photophysics, London, United Kingdom) emitting light mainly in the region 410-500 nm with a maximum around 440 nm was used (FIG. 1). […] Twenty four hours after irradiation, 20 μl of MTS (Promega Corporation, Madison, Wis.) was added to each well. Absorbance at 492 nm was measured after one hour incubation at 37° C. by means of a well plate reader (Multiskan Ex, Labsystems, Finland).

[4] = system: Proliferative (transformed or activated) T-cells; experiment: ALA-induced PpIX production in proliferative versus resting T-cells; format: cell-based
[5] = system: mice; settings: cited from earlier work
[6] = system: CD8+ T lymphocytes collected from a GvHD patient; experiment: Ex vivo ALA-ECP killing of patient CD8+ T lymphocytes (flow cytometry); format: cell-based, human; settings: particularly at a low light dose, 5-min light illumination
Protocol: (§1) A suitable dose and incubation time of ALA was used in leukocyte samples collected from ECP patients. The dark toxicity of ALA at the concentration in question was evaluated, followed by the ALA/UVA-mediated killing efficiency before studies on the mechanism of its action (apoptosis/necrosis). The lymphocytes from patients were incubated with ALA under the optimized experimental conditions before exposure to the UVA lamp in the Therakos Photopheresis System at the same light dose as used in the ECP treatment. The cell survival of ALA dark toxicity, ALA/UVA-mediated killing efficiency and apoptosis/necrosis were measured with flow cytometry using combined labelling of CD4^+ or CD8^+ with Annexin V/PI staining.
(§2) The killing effects of 5-ALA (a porphyrin precursor) plus the UVA light irradiation on CD4^+/CD8^+ T lymphocytes collected from a Graft versus Host Disease (GvHD) patient who went to a standard photopheresis treatment was evaluated. The cells were exposed to ALA+UVA in the standard photopheresis machine, and percentage survival evaluated at various timepoints between 1 h and 20 h. The 8-MOP plus UVA used for the standard photopheresis was also included for comparison. The cell survival was measured with flow cytometry using a combined staining of CD4/CD8 antibody, Annexin-V and eFluor450.

[7] = system: rats; settings: cited from earlier work
[8] = system: human leukocytes from GvHD or CTLC patients; experiment: 5-ALA dark toxicity on human leukocytes; format: cell-based; settings: 10 mM 5-ALA, 17-24 hours, no light
Protocol: The general safety of 5-ALA in absence of light-mediated activation (dark toxicity) was next evaluated. Blood samples from 10 GvHD or CTLC patients were treated with 10 mM 5-ALA at 37° C. in a 5% CO2 humidified incubator overnight (17-24 hours). Buffy coat samples from patients were directly harvested from the Therakos Photopheresis System during the standard photopheresis treatment. The cells incubated with the culture medium containing no 5-ALA were also included as a control in all individuals. The leukocytes were then labelled with antibodies for flow cytometry analysis of various subpopulations. The antibodies used were: CD45 PerCP-Cyanine5.5 for leukocytes, CD4 FITC for T helper cells, CD8 FITC for T cytotoxic cells and CD19 FITC for B-cells. The cells were also labelled with Fixable Viability Dye eFluor 450 for dead cells and Annexin V for apoptotic/dead cells. The different subpopulations of leukocytes were gated out and analyzed for cell viability. The cells that were negative for both the Fixable Viability Dye eFluor 450 and Annexin V were considered as viable cells.

[9] = system: CD4+ T lymphocytes collected from a GvHD patient; experiment: Ex vivo ALA-ECP killing of patient CD4+ T lymphocytes (flow cytometry); format: cell-based, human; settings: particularly at a low light dose, 5-min light illumination
Protocol: as §1, §2

[10] = system: Jurkat human T-cell lymphoma cells; experiment: ALA/UVA killing of Jurkat cells (PI staining); format: cell-based; settings: 1 mM ALA for 1 hour, 10% foetal bovine serum, then UVA light exposure
Protocol: Optimization of experimental conditions for ALA-ECP was performed in Jurkat cells, varying ALA concentration (1 to 5 mM) and treatment time (1 to 4 hours) in the presence of 10% foetal bovine serum. The cells were then exposed to UVA for 10 min using an UV-A lamp with almost identical emission spectra to those of the UV-A lamp used in the existing commercial Therakos photopheresis system. The cell survival after the ALA/UVA treatment was measured by fluorescence microscopy with propidium iodide (PI) staining.

[11] = system: humans; settings: oral ALA; normally resolves after 48 hours; cited from earlier work

COc1c2occc2cc2ccc(=O)oc12 [8-MOP, 8-methoxypsoralen]
mode of cell death, twenty hours following treatment ([1]; 1.00 μM 8-MOP followed by UV-A): almost all the cells seemed to die by apoptosis
Number of colonies (high cell density areas formed in semisolid medium 2 weeks after treatment) ([2]; 1.00 μM MOP/10 min UV-A): 0.8 ± 2.0
number of experiments when colonies were formed/total number of experiments ([2]; 1.00 μM MOP/10 min UV-A): 1/6
ability to sensitise the cells to photoinactivation when UV-A lamp spectrum shifted by few nm ([3]; 1.00 μM 8-MOP): significantly increased
Effect of presence of 8-MOP on cell proliferation during HAL-based PDT with blue light ([3]; 1.00 μM 8-MOP, blue light): did not affect cell proliferation
Dark toxicity (MTS assay) ([3]; 8-MOP up to 1.00 μM): no indication for dark toxicities
cell proliferation measured by MTS assay with increasing 8-MOP concentration ([3]; UV-A 5 and 10 min, absence of HAL): decreasing cell proliferation

NCC(=O)CCC(=O)O [ALA, 5-aminolevulinic acid]
ALA-induced PpIX production, proliferative versus normal resting T-cells [4]: about 15 fold
LD50 ([5]; mice, single dose of oral or intraperitoneal administration): 2,500 mg/kg body weight
toxic effects after single intravenous injection ([5]; mouse, in vivo, iv, 500 mg/kg): No observable toxic effects
killing of CD8+ T-cells, ALA plus UVA versus 8-MOP plus UVA [6]: much more effectively than 8-MOP plus UVA
toxic effects after single intravenous injection ([7]; rat, in vivo, iv, 250 mg/kg): No observable toxic effects
LD50 ([7]; rats, single dose of oral or intraperitoneal administration): 2,500 mg/kg body weight
dark cytotoxic effect on leukocytes [8]: no significant dark cytotoxic effect
killing of CD4+ T-cells, ALA plus UVA versus 8-MOP plus UVA [9]: much more effectively than 8-MOP plus UVA
Jurkat cells killed [10]: More than 95%
most common side effects [11]: nausea, vomiting and a transient rise in liver enzymes

CCCCCCOC(=O)CCC(=O)CN [HAL, hexyl 5-amino-4-oxopentanoate]
Cell appearance 20 hours after treatment ([1]; 1.55 μM HAL, 10 min UV-A, sample to sample variations): mostly apoptotic + some alive, or; also recorded: mostly necrotic + some apoptotic*
apoptotic bodies, twenty hours following treatment ([1]; 5.00 μM HAL and 10 min UV-A irradiation): no apoptotic bodies could be seen
Cell appearance 20 hours after treatment ([1]; 5.00 μM HAL, 10 s UV-A): apoptotic + alive (similar
Cell appearance 20 hours after treatment ([1]; 5.00 μM HAL, 10 s blue light): mostly apoptotic + some alive
Cell appearance 20 hours after treatment ([1]; 5.00 μM HAL, 10 min UV-A): only necrotic, no apoptotic
Number of colonies (high cell density areas formed in semisolid medium 2 weeks after treatment) ([2]; 5.00 μM HAL/10 min UV-A): 0
Number of colonies (high cell density areas formed in semisolid medium 2 weeks after treatment) ([2]; 7.40 μM HAL/10 s blue light): 4.5 ± 5.6
number of experiments when colonies were formed/total number of experiments ([2]; 7.40 μM HAL/10 s blue light): 4/6
Cell proliferation, evaluated by MTS assay ([3]; HAL 4 h, 10 or 20 s blue light or 5 or 10 min UV-A): decrease in a concentration-dependent manner
Dark toxicity (MTS assay) ([3]; HAL up to 11.00 μM): no indication for dark toxicities
HAL concentration sufficient to decrease cell proliferation to minimum after light exposure ([3]; UV-A 5 or 10 min): 5.00 µM
